# Assay results published in patent publication US11518760B2 (Liverpool School of Tropical Medicine, priority 2017, dated 2022).
# Test system: C6/36 Aedes albopictus cell line infected with Wolbachia pipientis (Wolbachia strain wAlbB)
# Assay: In vitro insect cell line assay (anti-Wolbachia screen, SYTO 11 high content imaging)
# Type: cell-based
# Details: 168 h; C6/36 Aedes albopictus cells infected with Wolbachia pipientis wAlbB, 7 days incubation, SYTO 11 imaging; read-out: In vitro anti-Wolbachia activity
# Procedure, shortened: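 Wolbachia wAlbB-infected C6/36 Aedes albopictus cells were exposed to compounds at a final 5 μM for 7 days at 26 °C, with DMSO-medium wells as untreated controls. Cells were then stained with SYTO 11 for 15 min, imaged by high-content microscopy and scored by texture analysis.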
row,Structure (SMILES),EC50 [nM]
1,"CC(C)Nc1nc(NCc2ccccc2S(C)(=O)=O)c2ncccc2n1 [Example 122, N^2-isopropyl-N^4-(2-(methylsulfonyl)benzyl)pyrido[3,2-d]pyrimidine-2,4-diamine]",1000 to 100000
2,"O=C1CCCN1CCCNc1ncnc2ccsc12 [Example 34, 1-(3-(thieno[3,2-d]pyrimidin-4-ylamino)propyl)pyrrolidin-2-one]",1000 to 100000
3,"FC(F)(F)c1ccccc1CNc1nc(N2CCOCC23CCC3)nc2ncccc12 [Example 285, 2-(8-oxa-5-azaspiro[3.5]nonan-5-yl)-N-(2-(trifluoromethyl)benzyl)pyrido[2,3-d]pyrimidin-4-amine]",10 to 100
4,"CN(Cc1ccccc1)c1nc(NCCCN2CCCC2=O)c2sccc2n1 [Example 36, 1-(3-((2-(benzyl(methyl)amino)thieno[3,2-d]pyrimidin-4-yl)amino)propyl)pyrrolidin-2-one]",1000 to 100000
5,"FC(F)(F)c1ncccc1CNc1nc(N2CCC(C(F)(F)F)CC2)nc2ncccc12 [Example 235, 2-(4-(trifluoromethyl)piperidin-1-yl)-N-((2-(trifluoromethyl)pyridin-3-yl)methyl)pyrido[2,3-d]pyrimidin-4-amine]",0.01 to 1
6,"FC(F)(F)c1ncccc1C1CCN1c1nc(N2CCC(Cl)CC2)nc2ncccc12 (stereo not shown) [Example 217, 2-(4-chloropiperidin-1-yl)-4-(2-(2-(trifluoromethyl)pyridin-3-yl)azetidin-1-yl)pyrido[2,3-d]pyrimidine]",< 0.01
7,"CC(C)Nc1nc(NCc2ccccc2Cl)c2ccccc2n1 [Example 137, N^4-(2-chlorobenzyl)-N^2-isopropylquinazoline-2,4-diamine]",1000 to 100000
8,FC1(F)CCN(Cc2nc(NCc3ccccc3C(F)(F)F)c3cccnc3n2)CC1 [Example 223],100 to 1000
9,[2H]c1cc2nc(C)nc(N(C)C(C)c3ccccc3C(F)(F)F)c2s1 (stereo not shown) [Example 71],10 to 100
10,"FC(F)(F)c1ccccc1CNc1nc(N2CCOCC2)nc2ccsc12 [Example 94, 2-morpholino-N-(2-(trifluoromethyl)benzyl)thieno[3,2-d]pyrimidin-4-amine]",1000 to 100000
11,"Cc1nc(NCc2ccc(F)cc2C(F)(F)F)c2ccccc2n1 [Example 73, N-(4-fluoro-2-(trifluoromethyl)benzyl)-2-methylquinazolin-4-amine]",100 to 1000
12,"CC1COCCN1c1nc(NCc2cccnc2C(F)(F)F)c2nccnc2n1 (stereo not shown) [Example 309, 2-(3-methylmorpholino)-N-((2-(trifluoromethyl)pyridin-3-yl)methyl)pteridin-4-amine]",100 to 1000
13,"FC(F)(F)c1ccccc1CNc1nc(N2CCC(C(F)(F)F)C2)nc2ncccc12 (stereo not shown) [Example 266, N-(2-(trifluoromethyl)benzyl)-2-(3-(trifluoromethyl)pyrrolidin-1-yl)pyrido[2,3-d]pyrimidin-4-amine]",1 to 10
14,"CC(C)Nc1nc(NCc2ccccc2C(F)(F)F)c2ccccc2n1 [Example 58, N^2-isopropyl-N^4-(2-(trifluoromethyl)benzyl)quinazoline-2,4-diamine]",100 to 1000
15,"FC(F)(F)c1ncccc1CNc1nc(N2CCCC2C(F)(F)F)nc2ncccc12 (stereo not shown) [Example 264, N-((2-(trifluoromethyl)pyridin-3-yl)methyl)-2-(2-(trifluoromethyl)pyrrolidin-1-yl)pyrido[2,3-d]pyrimidin-4-amine]",< 0.01
16,"CC(Nc1ncnc2ccsc12)c1ccccc1Cl (stereo not shown) [Example 38, N-(1-(2-chlorophenyl)ethyl)thieno[3,2-d]pyrimidin-4-amine]",1000 to 100000
17,"NC(=O)c1nc(NCc2ccccc2C(F)(F)F)c2cccnc2n1 [Example 146, 4-((2-(trifluoromethyl)benzyl)amino)pyrido[2,3-d]pyrimidine-2-carboxamide]",1000 to 100000
18,"FC(F)(F)c1ncccc1CNc1nc(N2CC(C(F)(F)F)C2)nc2ncccc12 [Example 202, 2-(3-(trifluoromethyl)azetidin-1-yl)-N-((2-(trifluoromethyl)pyridin-3-yl)methyl)pyrido[2,3-d]pyrimidin-4-amine]",1 to 10
19,"COc1cccc(CNc2nc(NC(C)C)nc3ccsc23)c1 [Example 16, N^2-isopropyl-N^4-(3-methoxybenzyl)thieno[3,2-d]pyrimidine-2,4-diamine]",1000 to 100000
20,"FC(F)(F)OC1CCN(c2nc(NCc3cccnc3C(F)(F)F)c3cccnc3n2)CC1 [Example 273, 2-(4-(trifluoromethoxy)piperidin-1-yl)-N-((2-(trifluoromethyl)pyridin-3-yl)methyl)pyrido[2,3-d]pyrimidin-4-amine]",< 0.01
21,"FC(F)(F)c1ncccc1CNc1nc(NC2CNC2)nc2ncccc12 [Example 147, N^2-(azetidin-3-yl)-N^4-((2-(trifluoromethyl)pyridin-3-yl)methyl)pyrido[2,3-d]pyrimidine-2,4-diamine]",1000 to 100000
22,"CC(C)Nc1nc(Nc2ccccc2C(F)(F)F)c2sccc2n1 [Example 59, N^2-isopropyl-N^4-(2-(trifluoromethyl)phenyl)thieno[3,2-d]pyrimidin-2,4-amine]",100 to 1000

row,Structure (SMILES),EC50 [nM]
1,"C[C@@H]1COCCN1c1nc(NCc2cccnc2C(F)(F)F)c2cccnc2n1 [Example 211, (R)-2-(3-methylmorpholino)-N-((2-(trifluoromethyl)pyridin-3-yl)methyl)pyrido[2,3-d]pyrimidin-4-amine]",10 to 100
2,"COc1ccccc1CNc1nc(NCCCN2CCCC2=O)c2sccc2n1 [Example 35, 1-(3-((2-((2-methoxybenzyl)amino)thieno[3,2-d]pyrimidin-4-yl)amino)propyl)pyrrolidin-2-one]",100 to 1000
3,"FC(F)O[C@H]1CCN(c2nc(NCc3cccnc3C(F)(F)F)c3cccnc3n2)C1 [Example 281, (S)-2-(3-(difluoromethoxy)pyrrolidin-1-yl)-N-((2-(trifluoromethyl)pyridin-3-yl)methyl)pyrido[2,3-d]pyrimidin-4-amine]",0.01 to 1
4,"CC1COCCN1c1nc(NCc2ccccc2C(F)(F)F)c2nccnc2n1 (stereo not shown) [Example 310, 2-(3-methylmorpholino)-N-(2-(trifluoromethyl)benzyl)pteridin-4-amine]",100 to 1000
5,"FC(F)OC1CCCN(c2nc(NCc3cccnc3C(F)(F)F)c3cccnc3n2)C1 (stereo not shown) [Example 292, 2-(3-(difluoromethoxy)piperidin-1-yl)-N-((2-(trifluoromethyl)pyridin-3-yl)methyl)pyrido[2,3-d]pyrimidin-4-amine]",< 0.01
6,"Clc1nc(NCc2ccccc2Cl)c2sccc2n1 [Example 21, 2-chloro-N-(2-chlorobenzyl)thieno[3,2-d]pyrimidin-4-amine]",10 to 100
7,"C[C@@H]1COCCN1c1nc(N2CCC2c2ccccc2C(F)(F)F)c2cccnc2n1 (stereo partly drawn) [Example 290, (3R)-3-methyl-4-(4-(2-(2-(trifluoromethyl)phenyl)azetidin-1-yl)pyrido[2,3-d]pyrimidin-2-yl)morpholine]",0.01 to 1
8,"FC1CCN(c2nc(NCc3cccnc3C(F)(F)F)c3cccnc3n2)C1 (stereo not shown) [Example 242, 2-(3-fluoropyrrolidin-1-yl)-N-((2-(trifluoromethyl)pyridin-3-yl)methyl)pyrido[2,3-a]pyrimidin-4-amine]",1 to 10
9,"Fc1ccc(CNc2ncnc3ccccc23)c(C(F)(F)F)c1 [Example 72, N-(4-fluoro-2-(trifluoromethyl)benzyl)quinazolin-4-amine]",10 to 100
10,"CC(Nc1ncnc2cc(C#N)sc12)c1ccccc1C(F)(F)F (stereo not shown) [Example 102, 4-((1-(2-(trifluoromethyl)phenyl)ethyl)amino)thieno[3,2-d]pyrimidine-6-carbonitrile]",1000 to 100000
11,"CC(Nc1nc(Cl)nc2ccsc12)c1ccccc1C(F)(F)F (stereo not shown) [Example 52, 2-chloro-N-(1-(2-(trifluoromethyl)phenyl)ethyl)thieno[3,2-d]pyrimidin-4-amine]",10 to 100
12,"CC(C)Nc1nc(N(C)Cc2cccnc2C(F)(F)F)c2cccnc2n1 [Example 160, N^2-isopropyl-N^4-methyl-N4-((2-(trifluoromethyl)pyridin-3-yl)methyl)pyrido[2,3-d]pyrimidine-2,4-diamine]",10 to 100
13,"O=C1CCCN1CCCNc1nc(NCc2ccccc2C(F)(F)F)c2sccc2n1 [Example 88, 1-(3-((4-((2-(trifluoromethyl)benzyl)amino)thieno[3,2-d]pyrimidin-2-yl)amino)propyl)pyrrolidin-2-one]",1000 to 100000
14,FC(F)(F)c1ccccc1CNc1nc(CN2CCC(Cl)CC2)nc2ncccc12 [Example 222],1000 to 100000
15,"FC(F)(F)c1ncccc1CNc1nc(NC2COC2)nc2ncccc12 [Example 158, N^2-(oxetan-3-yl)-N^4-((2-(trifluoromethyl)pyridin-3-yl)methyl)pyrido[2,3-d]pyrimidine-2,4-diamine]",100 to 1000
16,CC(=O)c1nc(NCc2ccccc2C(F)(F)F)c2sccc2n1 [Example 87],100 to 1000
17,"FC(F)(F)c1ccccc1CNc1nc(NC2CC2)nc2ccsc12 [Example 43, N^2-cyclopropyl-N^4-(2-(trifluoromethyl)benzyl)thieno[3,2-d]pyrimidine-2,4-diamine]",100 to 1000
18,"CC(C)Nc1nc(NCc2cccnc2C(F)(F)F)c2sccc2n1 [Example 153, N^2-isopropyl-N^4-((2-(trifluoromethyl)pyridin-3-yl)methyl)thieno[3,2-d]pyrimidine-2,4-diamine]",10 to 100
19,"CC(C)N(C)c1nc(NCc2cccnc2C(F)(F)F)c2cccnc2n1 [Example 162, N^2-isopropyl-N^2-methyl-N^4-((2-(trifluoromethyl)pyridin-3-yl)methyl)pyrido[2,3-d]pyrimidine-2,4-diamine]",0.01 to 1
20,"CC(c1ccccc1C(F)(F)F)N(C)c1nc(Cl)nc2ccsc12 (stereo not shown) [Example 67, 2-chloro-N-methyl-N-(1-(2-(trifluoromethyl)phenyl)ethyl)thieno[3,2-d]pyrimidin-4-amine]",100 to 1000
21,"COc1nc(N(C)C(C)c2ccccc2C(F)(F)F)c2sccc2n1 (stereo not shown) [Example 68, 2-methoxy-N-methyl-N-(1-(2-(trifluoromethyl)phenyl)ethyl)thieno[3,2-d]pyrimidin-4-amine]",10 to 100
